Laboratory results taken from publication PMC7938888, “Antidepressant drugs act by directly binding to TRKB neurotrophin receptors” (Cell, 2021).

B1: BDNF: brain-derived neurotrophic factor, TRKB ligand (protein, UniProt P23560 19-247, looked up)
Neurotrophic factor BDNF …: APMKEANIRGQGGLAYPGVRTHGTLESVNGPKAGSRGLTSLADTFEHVIEELLDEDQKVRPNEENNKDADLYTSRVMLSSQVPLEPPLLFLLEEYKNYLDAANMSMRVRRHSDPARRGELSVCDSISEWVTAADKKTAVDMSGGTVTVLEKVPVSKGQLKQYFYETKCNPMGYTKEGCRGIDKRHWNSQCRTTQSYVRALTMDSKKRIGWRFIRIDTSCVCTLTIKRGR

system: GFP-TRKB; assay: FRAP of GFP-TRKB in dendritic spines of hippocampal neurons; format: cell-based, rat; settings: BDNF 20 ng/mL, FLX 1 μM, KET 10 μM; 15 min pretreatment

Molecule | recovery of GFP-TRKB fluorescence in dendritic spines after bleaching
CNCCC(Oc1ccc(C(F)(F)F)cc1)c1ccccc1 (stereo not shown) [FLX, fluoxetine] | promoted recovery of GFP-TRKB fluorescence in dendritic spines
CNC1(c2ccccc2Cl)CCCCC1=O (stereo not shown) [KET, ketamine] | promoted recovery of GFP-TRKB fluorescence in dendritic spines
B1 | rapid recovery of GFP-TRKB fluorescence in spines

system: GFP-TRKB.Y433F; assay: FRAP of GFP-TRKB.Y433F in dendritic spines of hippocampal neurons; format: cell-based, rat; settings: BDNF 20 ng/mL, FLX 1 μM, KET 10 μM; 15 min
Experimental: For the fluorescence recovery after photobleaching (FRAP) experiments, E18 rat embryo hippocampal cells were plated onto glass coverslips coated with poly-L-lysine (Sigma-Aldrich) in 4-well cell culture plates at a density of 200.000 cells/well. The cultures were incubated at +37°C in serum-free Neurobasal medium (supplemented with 2% B27, 1% L-glutamine and 1% ampicillin) for approximately 2 weeks (DIV 14-16), renewing half of the growth media weekly. Then, they were transfected with Lipofectamine 2000 (Invitrogen) in order to overexpress GFP-tagged TRKB constructs (TRKB.WT or TRKB.Y433F). The cultures were incubated with the transfection mix (per well: 50ul neurobasal medium, 1ul Lipofectamine 2000, 1ug plasmid DNA) in serum-free media for 1.5 hours, followed by 3x medium washes and returned to the original growth medium after that. The cells were left at +37°C o/n to overexpress the constructs ([Koskinen et al., 2012]). Next day, FRAP was performed with a confocal microscope (Zeiss LSM 710, Carl Zeiss AG) adapted for live cell imaging with a chamber set at +37°C and 5%CO2 (Zeiss Temp Module system, Carl Zeiss AG). Coverslips with the cultured hippocampal neurons were carefully transferred to 35mm Petri dishes with warm HBSS medium without phenol red or serum to avoid sources of background fluorescence. After a 10 minutes adaptation period in the microscope chamber to avoid focus drift caused by temperature fluctuations of the stage and objective, dendritic shafts or spines (spine head diameter = ∼1um) were localized with a 63x/0.90 NA dipping water objective. Picture format was 512x512 pixels. The nominal speed to capture images was set to 9 (pixel dwell 3.15 μseconds, taking approximately 0.5 s to finish a scan), and the pinhole aperture was set to completely open to obtain a strong fluorescent signal ([Koskinen et al., 2012]; [Zheng et al., 2011]). Once a region of interest (ROI) was selected with a circle that contained the whole spine, it was bleached to establish the FRAP baseline. […]

Molecule | fluorescence of GFP-TRKB.Y433F in dendritic spines after bleaching
CNCCC(Oc1ccc(C(F)(F)F)cc1)c1ccccc1 (stereo not shown) [FLX, fluoxetine] | Neither BDNF, FLX, nor KET increased the fluorescence
CNC1(c2ccccc2Cl)CCCCC1=O (stereo not shown) [KET, ketamine] | Neither BDNF, FLX, nor KET increased the fluorescence
B1 | Neither BDNF, FLX, nor KET increased the fluorescence

system: GFP-TRKB.Y433F; assay: dSTORM/TIRF of GFP-TRKB.Y433F clusters on MG87.TRKB cells; format: cell-based, mouse; settings: BDNF 10 ng/ml, FLX 10 μM, CHOL 20 μM, KET 10 μM; 15 min
Experimental: For direct stochastic optical reconstruction microscopy (dSTORM) MG87.TRKB cells were grown on cell view 35mm dishes with glass bottom (Greiner) coated with poly-L-lysine (Sigma). […] Briefly, cells were fixed 24 hours post transfection with 4% PFA for 20 minutes, washed three times for 5 min with 1x PBS and incubated in blocking buffer (1% BSA, 0.1% gelatin, 5% goat serum, 0.1% Triton X-100 and 0.05% Tween-20 in PBS; all from Sigma) for 1 hour. The primary antibody against GFP (Abcam, #ab290) was diluted 1:100 and incubated overnight at +4°C, while the secondary antibody Alexa Fluor-conjugated goat-anti-rabbit 647 (Invitrogen) was diluted 1:500 and incubated at room temperature for 1 hour. The dishes were stored in +4°C in 1x PBS no longer than 48 hours before imaging.
During imaging, cells were maintained in blinking buffer (10% glucose, 0.07% cysteamine, 0.75 mg/ml glucose oxidase and 0.04 mg/ml catalase in 0.1 M Tris buffer, pH 7.8-8; all reagents from Sigma-Aldrich), which was freshly prepared and changed every hour. Imaging was performed in TIRF mode (TIRF angle 89.3 calibrated with ring-TIRF at least twice per sample) to specifically image the fluorophores at the plasma membrane. A GE DeltaVision OMX SR system (GE Healthcare) equipped with an Apo N 60x/1.49 oil objective and a sCMOS camera was used to acquire the images. The 640 nm diode laser was used at 100% of power to excite the Alexa 647 fluorophores while the 405 nm laser was adjusted until approximately 50% of power in order to maintain the blinking throughout the imaging session. For each cell, 35000 frames were acquired, and the localization map of single fluorophores was reconstructed with SoftWoRx 7.0 software (GE Healthcare). For the localization map, the first 1000 frames approximately were discarded and the reconstruction parameters were maintained identical for all the samples.
Reconstruction parameters: For the localization of all the blinking events in the dataset, the point spread function size factor was set at 1.550 with a local maximum factor of 0.05. Drift correction was adjusted dividing the frames into 20 groups. Tracking of the fluorophores was performed with a maximum localization precision of 100 nm without fiducial markers. The final localization map of the fluorophores identified was built with a reconstruction pixel size of 10 nm and localization precision set at 5 and 100 nm respectively for the minimum and the maximum, and a fluorophore persistence threshold set at 3 frames.
The analysis of the reconstructed images was performed in Fiji. Depending on the size of picture, 5 or 10 representative regions of interest (ROIs) of 2x1 μm were blindly chosen per cell and used for particle analysis of the TRKB-positive clusters. […]

Molecule | size of clusters of GFP-TRKB.Y433F at the plasma membrane
CC(C)CCC[C@@H](C)[C@H]1CC[C@H]2[C@@H]3CC=C4C[C@@H](O)CC[C@]4(C)[C@H]3CC[C@]12C [CHOL, cholesterol] | not clusters of GFP-TRKB.Y433F mutants
CNCCC(Oc1ccc(C(F)(F)F)cc1)c1ccccc1 (stereo not shown) [FLX, fluoxetine] | not clusters of GFP-TRKB.Y433F mutants
CNC1(c2ccccc2Cl)CCCCC1=O (stereo not shown) [KET, ketamine] | not clusters of GFP-TRKB.Y433F mutants
B1 | not clusters of GFP-TRKB.Y433F mutants
